Results: patent US20230183705A1, “PRODUCTS FOR SUPPRESSING OR REDUCING THE EXPRESSION OR ACTIVITY OF A SNORNA AND USES THEREOF IN THE TREATMENT OF CANCER” (NINOVAX, priority 2020, published 2023)

Columns and labels:
Assay type in all cases: cell-based, human
Ribosomes pathways = assay: Transcriptomic analysis (RNA-seq) with KEGG analysis in HCT116 cells; conditions: HCT116, siRNA treated versus non-treated cells
Protocol: Briefly, 99 genes over 138 genes of this pathway are deregulated.
The effect of the knock-down of the snoRNA-jouvence in HCT116 cells was assessed by the transfection of short interfering RNA (siRNA). First, the cells were seeded in 12-well plates (in triplicates), with the following number of cells per well: HCT116 and MCF7: 3.0×10^4, K562: 2.5 x10^4, A549: 2.0x10^4, and U87: 6.0x10^4. […] Cell suspensions were directly transfected with the corresponding siRNA (reverse transfection) at a final concentration of 10 nM per well, using the Lipofectamine RNAiMAX transfection reagent (ThermoFisher Scientific, USA). Forty-eight hours after the first siRNA reverse transfection, a forward transfection was performed on the adherent cells (at the same concentration as the first reverse transfection). Again, forty-eight hours after the siRNA forward transfection, a second forward transfection was performed on the adherent cells (at the same concentration). Then, after 72 h (meaning at J7 from the starting point), the medium was changed and cells were counted and compared to the different controls. For the RNA extraction and RNA-seq analysis performed in HCT116 cells, cell pellets were made under the same conditions (at J7). Experiments were performed in triplicates and the specific knock-down of the snoRNA-jouvence was validated by standard RT-qPCR (TaqMan). […]
In brief, technically, RNA concentration was measured using Qubit® RNA Assay Kit in Qubit® 2.0 Flurometer (Life Technologies, CA, USA). RNA integrity was assessed using the RNA Nano 6000 Assay Kit of the Bioanalyzer 2100 system (Agilent Technologies, CA, USA). […] At last, PCR products were purified (AMPure XP system) and library quality was assessed on the Agilent Bioanalyzer 2100 system. […] After cluster generation, the library preparations were sequenced on an Illumina Hiseq platform and 125 bp/150 bp paired-end reads were generated. […]

A549 cells (lung cancer) = assay: Cell proliferation (cell counting) after siRNA knock-down of snoRNA-jouvence; conditions: siRNA 10 nM, three transfections at day 0, 2, 4, cells counted at day 7
Protocol: (§1) The siRNA treatment consists of three reverse transfections applied at day 0, day 2, day 4, followed by the determination of the number of cells at day 7 for A-B-C-D. For E, a single treatment has been done at day 0, and the number of cells was counted two days later. siRNA was used at a concentration of 10 nM. Five different human cancer cell lines were used. A) HCT116 cells (colon cancer), B) MCF7 cells (breast cancer), C) U87 cells (glioblastoma), D) A549 cells (lung cancer), and E) K562 cells (leukemia). In siRNA-treated cells, inventors observed a strong reduction of the number of cells, by about 50% or more, except in E in which the reduction was about 10% probably due to the fact that only a single treatment has been performed. […] In si-RNA treated cells, inventors observed a 40% reduction of snoRNA-jouvence expression.
(§2) All human cancer cell lines were provided from ATCC. HCT116 were cultured in McCoy’s 5A medium (Gibco, Invitrogen, USA), supplemented with 10% Fetal Bovine Serum (FBS) (Biowest, France). MCF7, A549, and K562 cells were cultured in RPMI 1640 + Glutamax medium (Gibco, Invitrogen, USA), supplemented with 10% Fetal Bovine Serum (FBS) (Biowest, France). U87 cells were cultured in Dulbecco’s modified Eagle’s medium (DMEM) (Gibco), supplemented with 10% FBS. Cells were incubated at 37° C. in a humidified atmosphere containing 5% CO2. The medium was changed every two days, and cells were transferred using 0.05% trypsin/EDTA (Gibco Invitrogen).
(§3) The effect of the knock-down of the snoRNA-jouvence in HCT116 cells was assessed by the transfection of short interfering RNA (siRNA). First, the cells were seeded in 12-well plates (in triplicates), with the following number of cells per well: HCT116 and MCF7: 3.0×10^4, K562: 2.5 x10^4, A549: 2.0x10^4, and U87: 6.0x10^4. […] Cell suspensions were directly transfected with the corresponding siRNA (reverse transfection) at a final concentration of 10 nM per well, using the Lipofectamine RNAiMAX transfection reagent (ThermoFisher Scientific, USA). Forty-eight hours after the first siRNA reverse transfection, a forward transfection was performed on the adherent cells (at the same concentration as the first reverse transfection). Again, forty-eight hours after the siRNA forward transfection, a second forward transfection was performed on the adherent cells (at the same concentration). Then, after 72 h (meaning at J7 from the starting point), the medium was changed and cells were counted and compared to the different controls. For the RNA extraction and RNA-seq analysis performed in HCT116 cells, cell pellets were made under the same conditions (at J7). Experiments were performed in triplicates and the specific knock-down of the snoRNA-jouvence was validated by standard RT-qPCR (TaqMan).
(§4) Study was performed in five different human cancer cell lines, HCT116 cells (colon cancer), MCF7 cells (breast cancer), U87 cells (glioblastoma), A549 cells (lung cancer), and K562 cells (leukemia). The proliferation rate of siRNA-treated cells (snoRNA jouvence knock-down) compared to non-treated Control cells was analysed by cell counting at J7. Briefly, the supernatant was harvested and cells washed with PBS 1X. Then, cells were trypsinized with 300 µl of 0.05% trypsin/EDTA (Gibco) per well. Trypsine was inactivated with 700 µL of the corresponding medium per well, and then counted with the VicellXR (Cell viability Analyzer, Beckman Coulter).

K562 cells (leukemia) = assay: as above; conditions: siRNA 10 nM, single treatment at day 0, cells counted two days later
Protocol: as §1, §2, §3, §4

U87 cells (glioblastoma) = assay: as above; conditions: siRNA 10 nM, three transfections at day 0, 2, 4, cells counted at day 7
Protocol: as §1, §2, §3, §4

[1] = tested on: HCT116 cells (colon cancer); assay: as above; conditions: siRNA 10 nM, three transfections at day 0, 2, 4, cells counted at day 7
Protocol: as §1, §2, §3, §4

[2] = tested on: MCF7 cells (breast cancer); assay: as above; conditions: siRNA 10 nM, three transfections at day 0, 2, 4, cells counted at day 7
Protocol: as §1, §2, §3, §4

snoRNA-jouvence = assay: Expression of the snoRNA-jouvence by RT-qPCR (Taqman) in siRNA-treated HCT116 cells; conditions: siRNA-treated HCT116 cells compared to non-treated control HCT116 cells, siRNA 10 nM
Protocol: as §1
The effect of the knock-down of the snoRNA-jouvence in HCT116 cells was assessed by the transfection of short interfering RNA (siRNA). First, the cells were seeded in 12-well plates (in triplicates), with the following number of cells per well: HCT116 and MCF7: 3.0×10^4, K562: 2.5 x10^4, A549: 2.0x10^4, and U87: 6.0x10^4. […] Then, after 72 h (meaning at J7 from the starting point), the medium was changed and cells were counted and compared to the different controls. […]

## siRNA: silencer selected siRNA (Lock-Nucleotide-Acid siRNA) comprising SEQ ID NO: 3 as sense and SEQ ID NO: 4 as antisense sequence, against snoRNA-jouvence (sense GGCUAUUGUGGACAGAGGA; antisense UCCUCUGUCCACAAUAGCC; Silencer Select LNA-modified siRNA, pattern not given here)
Ribosomes pathways
  deregulated genes of the Ribosomes pathways (over 138 genes): 99 genes
  downregulated genes of the Ribosomes pathways: 92 genes
  upregulated genes of the Ribosomes pathways: 7 genes
A549 cells (lung cancer)
  reduction of the number of cells: ≥ 50%
K562 cells (leukemia)
  reduction of the number of cells: about 10%
U87 cells (glioblastoma)
  reduction of the number of cells: ≥ 50%
[1]
  reduction of the number of cells: ≥ 50%
[2]
  reduction of the number of cells: ≥ 50%
snoRNA-jouvence
  reduction of snoRNA-jouvence expression: 40%
